This is an account of results in patent publication US20250268855A1, “PHARMACEUTICAL AND NUTRACEUTICAL COMPOSITIONS WITH A COMBINATION OF AMINO ACIDS AND ITS USE IN DISEASES CHARACTERIZED BY LIPID ACCUMULATION IN TISSUES” (FUNDACIÓ EURECAT, priority 2022, published 2025).

For assay [1], the system named is mice consumed high saturated fat diet. As to conditions: Mong et al.; cited from earlier work.
The subject of assay [2] is hepatocyte cell line (HepG2). Description: In vitro assay of gene expression in hepatocyte cell line. It is filed as cell-based, human. The conditions noted are these: HepG2, 24 h; Histidine 10 mM, carnosine 5 mM, cysteine 5 mM, serine 5 mM; vs. control. On the procedure: These concentrations were conserved with the different combinations. Data are expressed as mean±SEM; n=3-4 per condition. *p<0.05; **p<0.01, ***p<0.001 vs. vehicle.
An in vitro assay was also carried out using the hepatocyte cell line (HepG2) to test the effect of different combinations of the supplemented amino acids in hepatic expression of key genes of fatty acid beta-oxidation (carnitine palmitoyltransferase, Cpt1a), inflammation (chemokine (C-C motif) ligand 2, CCL2), lipolysis (hormone-sensitive, HSL; and lipin, LPIN) and lipogenesis (fatty acid synthase, FASN). Gene expression was determined by qPCR as previously indicated (see materials and methods in example 1). […] The Cpt1a enzyme is located in the outer membrane, and it is the key enzyme in the carnitine-dependent transport across the mitochondrial inner membrane. Its deficiency results in a decreased rate of fatty acid beta-oxidation.
Data are depicted in FIG. 7, wherein the level of expression (mRNA) is indicated for any of the supplemented media. […]

`NCCC(=O)N[C@@H](Cc1cnc[nH]1)C(=O)O` [carnosine]: in assay [1], the body weight entry is recorded as “lowered”, the epididymal fat result was “lowered”, the hepatic cholesterol levels result is given as “lowered” and the hepatic triglyceride levels entry is “lowered”. In addition, in assay [1], the hyper-insulinemia result is recorded as “attenuated” and the insulin sensitivity entry was “improved”. In assay [2], the “Cpt1a mRNA expression (the cited enzyme)” value was “trend to reduce the effect”.

Turning to `N[C@@H](Cc1c[nH]cn1)C(=O)O` [histidine], in assay [1], the body weight entry is reported as “lowered”, the epididymal fat entry is listed as “lowered”, the hepatic cholesterol levels entry is “lowered” and the hepatic triglyceride levels result was “lowered”. Besides, in assay [1], the hyper-insulinemia result is given as “attenuated” and the insulin sensitivity result is “improved”.
